Measurements published in patent publication US20200237742A1, “Serdexmethylphenidate Conjugates, Compositions And Methods Of Use Thereof” (priority 2018, published 2020).
Counter-ions that a name gives are not always drawn.

What was measured:
[1] = system: healthy, nondependent, recreational stimulant users with intranasal insufflation experience; assay: Intranasal abuse potential study, VAS pharmacodynamic assessments
From the text: “Ease of Insufflation” VAS is the measure that assesses the difficulty of snorting the study drugs. Subjects will respond to the statement “Snorting this drug was:” The question will be scored using a 0-100 points unipolar VAS anchored on the left with “Very Easy” (score of 0) and anchored on the right with “Very Difficult” (score of 100).
The study consisted of a Screening Period, an in-clinic Drug Discrimination Phase, a Treatment Phase, and a Follow-Up Visit.
Subjects who successfully completed the Screening Period returned to the clinic to complete the Drug Discrimination Phase. […] Subjects who successfully completed the Drug Discrimination Phase remained as inpatients to enter the Treatment Phase. The Drug Discrimination Phase was a double-blind, intranasal, single-dose, 2-treatment, 2-period, 2-sequence, randomized, crossover design.
All subjects were required to fast for at least 8 hours prior to each dose of study drug until approximately 4 hours after each dose. Abuse potential measures and pharmacokinetic samples were collected at different times after the administration of study drug. Subjects who successfully completed the Drug Discrimination Phase and who qualified for the Treatment Phase remained as inpatients to enter the Treatment Phase.
The placebo dose consisted of 80 mg of microcrystalline cellulose to create the same volume.
On dosing days in the Treatment Phase, blood samples were collected for the measurement of the plasma concentrations of SDX, d-methylphenidate (d-MPH), 1-methylphenidate (1-MPH) and ritalinic acid at predose and at 0.25, 0.5, 0.75, 1, 1.5, 2, 3, 4, 5, 6, 7, 8, 9, 10, 12, 16, 24, 36, and 48 hours ±5 minutes after each dose of study drug. […] All VAS pharmacodynamic assessments except Take Drug Again and Overall Drug Liking were performed at 0.25, 0.5, 0.75, 1, 1.5, 2, 3, 4, 5, 6, 7, 8, 10, 12, 24 hours ±5 minutes postdose. In addition, predose assessments of Feeling High, and Drowsiness/Alertness were collected. The Take Drug Again and Overall Drug Liking VAS assessments were performed at 12 and 24 hours ±5 minutes postdose. Ease of Nasal Insufflation scores were completed within 5 minutes after the completion of each intranasal drug administration during the Treatment Phase.

[2] = system: recreational stimulant abusers; assay: Intravenous study, treatment-emergent adverse events; details: SDX Cl 30 mg (N = 31), d-MPH HCl 15 mg (N = 30)
Description: A study was conducted in humans to assess the intravenous abuse potential of serdexmethylphenidate relative to unconjugated d-methylphenidate and placebo in recreational stimulant abusers. This was a Phase 1, randomized, double-blind study in which serdexmethylphenidate and d-methylphenidate were administered intravenously in recreational stimulant users with a history of non-oral abuse. In Part A of the study, subjects (Cohort 1) participated in a dose-escalation phase to determine the optimal dose of intravenous d-methylphenidate based on tolerability and abuse-related pharmacodynamic assessments. […] The doses of serdexmethylphenidate and d-methylphenidate are equivalent with respect to molar amount of d-methylphenidate. FDA-recommended abuse potential measures and blood samples were collected at different times after dosing. Safety assessments were performed throughout the study.

[3] = 12 hours, SDX Cl 80 mg, d-MPH HCl 40 mg
[4] = 24 hours, SDX Cl 80 mg, d-MPH HCl 40 mg

SMILES | Median Overall Drug Liking [1, 3] | Median Take Drug Again [1, 3] | Median Overall Drug Liking [1, 4] | Median Take Drug Again [1, 4] | TEAE: Change in sustained attention [2] | TEAE: Dry mouth [2] | TEAE: Energy increased [2] | TEAE: Euphoric mood [2] | TEAE: Feeling abnormal [2] | TEAE: Feeling hot [2] | TEAE: Feeling jittery [2] | TEAE: Feeling of relaxation [2] | TEAE: Headache [2] | TEAE: Heart rate increased [2] | TEAE: Hyperhidrosis (sweaty hands) [2] | TEAE: Hypervigilance [2] | TEAE: Nausea [2] | TEAE: Palpitations [2] | TEAE: Paraesthesia (tingling) [2] | TEAE: Sinus tachycardia [2] | other results
COC(=O)[C@H](c1ccccc1)[C@H]1CCCCN1 [d-methylphenidate hydrochloride, d-threo-methylphenidate hydrochloride] | 87 | 91 | 82 | 94 | 2 (6.7) n (%) | 6 (20.0) n (%) | 1 (3.3) n (%) | 17 (56.7) n (%) | 2 (6.7) n (%) | 6 (20.0) n (%) | 2 (6.7) n (%) | 1 (3.3) n (%) | 1 (3.3) n (%) | 5 (16.7) n (%) | 4 (13.3) n (%) | 10 (33.3) n (%) | 3 (10.0) n (%) | 2 (6.7) n (%) | 2 (6.7) n (%) | 4 (13.3) n (%) | Mean Difference Overall Drug Liking, B vs A ([1]; 24 hours, d-MPH HCl 40 mg vs SDX Cl 80 mg): statistically higher; TEAE: Somnolence [2]: 4 (13.3) n (%); TEAE: Tachycardia [2]: 4 (13.3) n (%)
COC(=O)[C@H](c1ccccc1)[C@H]1CCCCN1C(=O)OC[n+]1cccc(C(=O)N[C@@H](CO)C(=O)O)c1.[Cl-] [serdexmethylphenidate chloride] | 58 | 51 | 55 | 50 | 0 (0.0) n (%) | 0 (0.0) n (%) | 2 (6.5) n (%) | 4 (12.9) n (%) | 1 (3.2) n (%) | 2 (6.5) n (%) | 0 (0.0) n (%) | 0 (0.0) n (%) | 1 (3.2) n (%) | 0 (0.0) n (%) | 1 (3.2) n (%) | 4 (12.9) n (%) | 0 (0.0) n (%) | 0 (0.0) n (%) | 0 (0.0) n (%) | 0 (0.0) n (%) | Mean Overall Drug Liking [1, 4]: 59.0; TEAE: Somnolence [2]: 1 (3.2) n (%); TEAE: Tachycardia [2]: 0 (0.0) n (%)
